Reference: US7101876B2, “Substituted benzoxazines as integrin antagonists” (Pharmacia Corporation, priority 2001, dated 2006)

Legend:
αIIbβ3 integrin = target: T1, αIIbβ3 integrin (Homo sapiens, UniProt P05106+P08514); test: αIIbβ3-fibrinogen binding assay (solid phase); details: inhibition of biotinylated fibrinogen (10 nM) binding to coated integrin; read-out: αIIbβ3 (IC50 μmol)
T1 construct: Human fibrinogen receptor (αIIbβ3) was purified from human platelets; from tissue; host or cells: human platelets
Experimental: (§1) A solid phase assay for the study of αIIbβ3-fibrinogen binding was set up according to the method described for αvβ3. αIIbβ3 integrin was diluted into coating buffer (CB) containing 150 mM NaCl, 1 mM Cacl2, 1 mM MgCl2, 1 mM MnCl2, 20 mM TRIS, pH 7.4 at a concentration of 3 μg/ml. Into 96-well plates, 50 μl of the diluted integrin were added and allowed to bind to the plate walls overnight at 4° C. Next day, the assay plates were emptied and 100 μl of blocking buffer (CB buffer with 3% BSA) were added to each well for 45 min at 37° C. […] Then, the plates were washed as described and 50 μl of ready to use Turbo-TMB substrate for peroxydase were added to each well. After 30 minutes incubation at room temperature, the color development was stopped with 50 μl sulphuric acid 0.38 M and the plates were read at a wavelength of 450 nm with a Packard plate reader. The values obtained were analyzed by four parameters curve fit with the computer program GraphPad Prism, after normalization by a maximum binding control (Bmax) detected in wells where no competitor was added, and a minimum binding control (NSB) detected in wells where no integrin was coated. […]

human αvβ3 integrin = target: T2, human αvβ3 integrin (Homo sapiens, UniProt P05106+P06756); test: αvβ3-vitronectin binding assay (solid phase)
T2 construct: Human vitronectin receptor (αvβ3) was purified from human placenta; from tissue; host or cells: human placenta
Experimental: as §1, with “of αvβ3-vitronectin” for “of αIIbβ3-fibrinogen”, “up on” for “up according to”, “the basis of already published methods (WONG et al., Molecular Pharmacology 50: 529–537, 1996; Brooks et al., Cell 85: 683–693, 1996). The human αvβ3” for “the method described for αvβ3. αIIbβ3”, “mM CaCl2,” for “mM Cacl2,”, “of 1.5” for “of 3”, “fit in” for “fit with”

T2 sequence (P06756 31-889 limits assumed): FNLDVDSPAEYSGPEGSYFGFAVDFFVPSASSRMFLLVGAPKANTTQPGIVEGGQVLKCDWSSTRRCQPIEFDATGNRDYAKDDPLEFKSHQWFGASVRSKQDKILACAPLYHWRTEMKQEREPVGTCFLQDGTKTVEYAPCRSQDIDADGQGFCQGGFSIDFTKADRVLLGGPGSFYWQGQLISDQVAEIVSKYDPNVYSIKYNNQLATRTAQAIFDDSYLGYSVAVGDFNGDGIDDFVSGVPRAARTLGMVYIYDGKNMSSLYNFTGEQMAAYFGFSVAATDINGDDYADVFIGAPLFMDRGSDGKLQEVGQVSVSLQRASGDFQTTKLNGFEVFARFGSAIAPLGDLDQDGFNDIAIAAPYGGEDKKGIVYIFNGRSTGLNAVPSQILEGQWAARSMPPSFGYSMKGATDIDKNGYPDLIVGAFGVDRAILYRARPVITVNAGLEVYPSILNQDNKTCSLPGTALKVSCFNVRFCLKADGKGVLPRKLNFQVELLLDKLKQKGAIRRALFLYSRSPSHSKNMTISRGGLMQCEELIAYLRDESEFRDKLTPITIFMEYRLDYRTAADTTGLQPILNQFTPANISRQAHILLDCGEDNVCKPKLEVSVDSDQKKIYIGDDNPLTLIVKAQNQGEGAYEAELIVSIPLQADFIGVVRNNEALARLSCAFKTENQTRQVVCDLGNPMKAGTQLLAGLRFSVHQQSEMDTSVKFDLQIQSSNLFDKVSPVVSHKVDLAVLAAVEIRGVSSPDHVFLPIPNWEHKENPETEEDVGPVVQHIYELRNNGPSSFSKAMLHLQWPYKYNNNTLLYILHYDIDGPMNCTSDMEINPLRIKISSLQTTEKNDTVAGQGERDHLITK
T2 sequence (P06756 891-1048 partner limits assumed): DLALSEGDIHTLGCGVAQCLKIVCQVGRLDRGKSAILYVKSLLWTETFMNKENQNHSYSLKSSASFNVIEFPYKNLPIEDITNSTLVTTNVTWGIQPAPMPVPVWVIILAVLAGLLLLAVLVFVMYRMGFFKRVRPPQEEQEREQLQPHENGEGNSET
T2 sequence (P05106 27-788): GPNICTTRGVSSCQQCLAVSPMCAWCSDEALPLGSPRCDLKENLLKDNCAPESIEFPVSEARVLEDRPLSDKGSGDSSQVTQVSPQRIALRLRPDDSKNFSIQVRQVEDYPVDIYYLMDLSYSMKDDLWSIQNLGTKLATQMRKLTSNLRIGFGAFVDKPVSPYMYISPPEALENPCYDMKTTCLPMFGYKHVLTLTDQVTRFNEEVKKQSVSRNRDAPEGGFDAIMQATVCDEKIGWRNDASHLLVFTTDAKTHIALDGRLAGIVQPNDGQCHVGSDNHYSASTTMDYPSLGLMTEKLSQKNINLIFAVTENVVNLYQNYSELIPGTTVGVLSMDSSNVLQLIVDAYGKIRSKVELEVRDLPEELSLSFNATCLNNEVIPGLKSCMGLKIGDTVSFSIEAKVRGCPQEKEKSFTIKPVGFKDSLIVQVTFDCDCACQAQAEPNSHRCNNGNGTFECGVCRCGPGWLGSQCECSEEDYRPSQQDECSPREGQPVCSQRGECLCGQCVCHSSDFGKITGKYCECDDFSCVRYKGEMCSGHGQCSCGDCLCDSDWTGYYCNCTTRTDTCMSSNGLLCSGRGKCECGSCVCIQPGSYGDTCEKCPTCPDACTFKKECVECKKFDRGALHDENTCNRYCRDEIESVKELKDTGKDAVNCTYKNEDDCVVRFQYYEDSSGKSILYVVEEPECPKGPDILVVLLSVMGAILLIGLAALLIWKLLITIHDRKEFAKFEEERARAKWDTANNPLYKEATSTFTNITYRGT
T1 sequence (P08514 32-887 limits assumed): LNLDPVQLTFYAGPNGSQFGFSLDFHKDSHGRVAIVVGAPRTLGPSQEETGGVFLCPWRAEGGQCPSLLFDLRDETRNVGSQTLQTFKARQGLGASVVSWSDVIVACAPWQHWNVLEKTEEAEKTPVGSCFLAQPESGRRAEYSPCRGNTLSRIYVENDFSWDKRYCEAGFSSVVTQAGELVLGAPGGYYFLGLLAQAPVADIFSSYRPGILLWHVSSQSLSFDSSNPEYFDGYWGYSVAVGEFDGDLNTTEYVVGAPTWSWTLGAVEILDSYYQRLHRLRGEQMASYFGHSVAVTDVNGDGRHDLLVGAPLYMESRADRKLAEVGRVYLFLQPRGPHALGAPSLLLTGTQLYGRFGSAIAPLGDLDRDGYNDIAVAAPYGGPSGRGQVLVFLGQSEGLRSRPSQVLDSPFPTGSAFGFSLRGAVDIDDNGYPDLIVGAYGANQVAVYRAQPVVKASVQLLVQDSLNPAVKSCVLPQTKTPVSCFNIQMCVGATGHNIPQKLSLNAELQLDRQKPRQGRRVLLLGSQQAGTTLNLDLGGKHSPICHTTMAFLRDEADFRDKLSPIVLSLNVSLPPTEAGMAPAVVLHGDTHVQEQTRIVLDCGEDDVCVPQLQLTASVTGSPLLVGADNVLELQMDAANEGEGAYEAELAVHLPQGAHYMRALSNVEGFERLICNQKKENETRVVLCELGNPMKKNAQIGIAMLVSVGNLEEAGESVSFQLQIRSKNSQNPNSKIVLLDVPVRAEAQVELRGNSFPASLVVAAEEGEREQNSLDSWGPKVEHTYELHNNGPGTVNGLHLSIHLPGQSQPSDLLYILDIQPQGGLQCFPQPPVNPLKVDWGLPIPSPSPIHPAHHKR
T1 sequence (P08514 891-1039 partner limits assumed): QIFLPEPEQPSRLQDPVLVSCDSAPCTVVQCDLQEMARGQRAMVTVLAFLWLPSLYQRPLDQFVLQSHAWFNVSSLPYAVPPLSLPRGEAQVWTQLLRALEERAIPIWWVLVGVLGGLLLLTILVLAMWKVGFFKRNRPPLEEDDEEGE
T1 sequence (P05106 27-788): as the sequence (P05106 27-788) above

IC50 (αIIbβ3 integrin): 18 µM
IC50 (human αvβ3 integrin; inhibition of biotinylated vitronectin (5 nM) binding to coated integrin, read-out: αvβ3 (IC50 μmol)): 11 ± 4 nM
ratio between αIIbβ3 and αvβ3 inhibiting activity (human αvβ3 integrin; selectivity, αIIbβ3 IC50 / αvβ3 IC50): about 1,000
SMILES: O=C(O)CC(Nc1ccc2c(c1)OCC(=O)N2CCCNc1ccccn1)c1ccccc1 (stereo not drawn) [3-{4-[3-(N-(2-pyridinyl)amino)propyl]-3-oxo-3,4-dihydro-2H-1,4-benzoxazin-7-yl)amino}-3-phenylpropanoic acid]
